Assay results published in PubChem BioAssay AID504640 (Southern Research Specialized Biocontainment Screening …, 2011).
Active and inactive are the calls of the source. No rule for the calls is given here. Where a SMILES comes first, the peptide text is derived from it. The star is where a group is joined. Cbz = O=C(OCc1ccccc1)*

How the values were obtained:
[1] = cytotoxicity in THP-1 cells, cytotoxicity control, cell-based (AID 504640); conditions: THP-1 cell viability, cytotoxicity; at 100 µM (top of the series)
[2] = system: THP-1 cell viability, cytotoxicity; assay: as above

| Structure (SMILES) | viability [1] | CC50 [2] [µM] |
| --- | --- | --- |
| Cc1nc(SCC(=O)NC2CCCCC2)[nH]c(=O)c1C | 106% (inactive) | – |
| CCOC(=O)C(C)Sc1ncnc2c1nnn2-c1ccc(F)cc1 (configuration not stated) | – | 38.7 |
| Cc1ccc2c(c1)c(C1=c3ccccc3=NC1=O)c(O)n2C | – | 12.6 |
| CCOC(=O)c1ccc(NC(=O)Cn2ncc(Cl)c(Cl)c2=O)cc1 | – | 0.88 |
| CNc1nc(SCc2ccccc2Cl)nc2c1CCCC2 | – | 28 |
| COC(=O)C(C)Oc1ccc(-c2nccc(-c3ccccn3)n2)cc1 (configuration not stated) | 91% (inactive) | – |
| Oc1ccccc1/C=N/Nc1ccnc(SCc2ccccc2)n1 | – | 44.9 |
| Cc1ccc2ccc3ccc(C)nc3c2n1 | – | < 0.2 |
| c1ccc(/N=C2\N=C(Nc3ccccn3)c3ccccc32)nc1 | – | < 0.2 |
| COC(=O)c1ccc(CNc2c(N3CCCC3)c(=O)c2=O)cc1 | 80.7% (inactive) | – |
| COC(=O)C1CC(=O)N(c2ccc(OCc3ccccc3Cl)cc2)C1 (configuration not stated) | 86.1% (inactive) | – |
| CC[N+](C)(CC)CCCCOc1ccc2c(c1)C(=O)c1cc(OCCCC[N+](C)(CC)CC)ccc1-2 | – | 23.1 |
| CCOC(=O)CNC(=O)[C@H](Cc1ccccc1)NC(=O)OCc1ccccc1 (Cbz-Phe-Gly-OEt) | – | 43.1 |
| Cc1ccc(C(=O)N/N=C(/CC(=O)c2cccs2)C(F)(F)F)cc1 | – | 40.4 |
| Cc1cccc(/C=C/C(=O)c2ccc([N+](=O)[O-])o2)c1 | – | 6.64 |
| CCOC(=O)COn1c2c(c3c4no[n+]([O-])c4ccc31)CCCC2 | 92.6% (inactive) | – |

| Structure (SMILES) | viability [1] | CC50 [2] [µM] |
| --- | --- | --- |
| COC(=O)CCc1nc2c(C#N)c(-c3ccc(Cl)cc3)ccn2n1 | 108% (inactive) | – |
| CCOC(=O)COc1ccc(/C=C2\NC(=S)N(CC)C2=O)cc1 | 89.2% (inactive) | – |
| O=C(/C=C/c1ccccc1)N1CCN(CCN2C(=O)c3cccc4cccc(c34)C2=O)CC1 | – | 41.2 |
| CCOC1OC(=O)C(Cl)=C1Nc1ccccc1C (configuration not stated) | 81.1% (inactive) | – |
| Cc1nn2c(NCc3ccccn3)cc(C(C)C)nc2c1-c1ccccc1 | – | 2.88 |
| Cc1cc(Br)ccc1NC(=O)c1cnc(N2CCN(c3ccccn3)CC2)c2ccccc12 | – | 35.6 |
| COc1cc(NC(=O)C/C(C)=N/NC(=O)c2ccccn2)c(OC)cc1Cl | 101% (inactive) | – |
| Cc1ccc(NC(=O)C2C3/C=C\CCCCC32)cc1C (configuration not stated) | 86.3% (inactive) | – |
| O=C(NCC(c1cccs1)N1CCOCC1)c1cc([N+](=O)[O-])cc([N+](=O)[O-])c1 (configuration not stated) | – | 58.4 |
| O=C(CSc1nc2ccccc2c(=O)[nH]1)NC1CCCCC1 | 92.5% (inactive) | – |
| CCC(C)Nc1ccc(NC(C)CC)cc1 (configuration not stated) | – | 3.31 |
| S=c1nc[nH]c2nc[nH]c12 | – | 0.56 |
| CC(C)NC(=O)c1sc(=S)n2c1[nH]c(=O)c1ccc(C(=O)NCCc3ccc(Cl)cc3)cc12 | – | 52.8 |
| COC(=O)C(Nc1nc(SCC(=O)NC2CCCCC2)nc2ccccc12)c1ccccc1 (configuration not stated) | – | 50.4 |
| Cc1cccc(-c2oc3ccc(-c4ccc5c(c4)OCO5)cc3c2C#Cc2cncn2C)c1 | – | 35.9 |
| COC(=O)c1cc(=O)n(-c2ccc(F)cc2)c(=Nc2ccc(F)cc2)s1 | – | 17.6 |
